According to the supplement of paper PMC4932681:

Assays:
BT-474 Tam1 [1] = assay: drug sensitivity score (DSS) (DSS (dimensionless)); higher = more sensitive; extreme values may be limits of the assay; details: 4-OH-tamoxifen in medium 1 µM; 72 h
In short: (§1)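 Breast cancer cell lines and their resistant derivatives were seeded into 384-well plates holding FO2Baq library drugs at five concentrations spanning a 10 000-fold range. Resistant lines were in medium with 1 μM of the selecting drug. Cells were incubated 72 h at 37 °C, and CellTiter-Glo viability was read on a PHERAstar and normalised to vehicle-only and positive controls. Drug sensitivity score, relative IC50 (curve midpoint) and top-dose inhibition came from logistic dose–response fits (Breeze pipeline).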

BT-474 Tam2 [2] = assay: as above; details: 4-OH-tamoxifen in medium 1 µM; 72 h
In short: as §1

BT-474 [3] = assay: as above; details: 72 h
In short: as §1

MCF-7 Tam1 [4] = assay: as above; details: 4-OH-tamoxifen in medium 1 µM; 72 h
In short: as §1

MCF-7 [5] = assay: as above; details: 72 h
In short: as §1

T-47D Tam1 [6] = assay: as above; details: 4-OH-tamoxifen in medium 1 µM; 72 h
In short: as §1

T-47D Tam2 [7] = assay: as above; details: 4-OH-tamoxifen in medium 1 µM; 72 h
In short: as §1

T-47D [8] = assay: as above; details: 72 h
In short: as §1

ZR-75-1 Tam1 [9] = assay: as above; details: 4-OH-tamoxifen in medium 1 µM; 72 h
In short: as §1

ZR-75-1 Tam2 [10] = assay: as above; details: 4-OH-tamoxifen in medium 1 µM; 72 h
In short: as §1

ZR-75-1 [11] = assay: as above; details: 72 h
In short: as §1

BT-474 Tam1 [12] = assay: relative IC50 (midpoint of fitted logistic curve, plateau may be below 50% inhibition; CellTiter-Glo viability); higher = less potent; details: 4-OH-tamoxifen in medium 1 µM; 72 h
In short: as §1

BT-474 Tam2 [13] = assay: as above; details: 4-OH-tamoxifen in medium 1 µM; 72 h
In short: as §1

BT-474 [14] = assay: as above; details: 72 h
In short: as §1

MCF-7 Tam1 [15] = assay: as above; details: 4-OH-tamoxifen in medium 1 µM; 72 h
In short: as §1

MCF-7 [16] = assay: as above; details: 72 h
In short: as §1

T-47D Tam1 [17] = assay: as above; details: 4-OH-tamoxifen in medium 1 µM; 72 h
In short: as §1

T-47D Tam2 [18] = assay: as above; details: 4-OH-tamoxifen in medium 1 µM; 72 h
In short: as §1

T-47D [19] = assay: as above; details: 72 h
In short: as §1

ZR-75-1 Tam1 [20] = assay: as above; details: 4-OH-tamoxifen in medium 1 µM; 72 h
In short: as §1

ZR-75-1 Tam2 [21] = assay: as above; details: 4-OH-tamoxifen in medium 1 µM; 72 h
In short: as §1

ZR-75-1 [22] = assay: as above; details: 72 h
In short: as §1

Structure (SMILES) | drug sensitivity score (BT-474 Tam1 [1]) | drug sensitivity score (BT-474 Tam2 [2]) | drug sensitivity score (BT-474 [3]; 4-OH-tamoxifen in medium 0 µM) | drug sensitivity score (BT-474 [3]; 4-OH-tamoxifen in medium 1 µM) | drug sensitivity score (MCF-7 Tam1 [4]) | drug sensitivity score (MCF-7 [5]; 4-OH-tamoxifen in medium 0 µM) | drug sensitivity score (MCF-7 [5]; 4-OH-tamoxifen in medium 1 µM) | drug sensitivity score (T-47D Tam1 [6]) | drug sensitivity score (T-47D Tam2 [7]) | drug sensitivity score (T-47D [8]; 4-OH-tamoxifen in medium 0 µM) | drug sensitivity score (T-47D [8]; 4-OH-tamoxifen in medium 1 µM) | drug sensitivity score (ZR-75-1 Tam1 [9]) | drug sensitivity score (ZR-75-1 Tam2 [10]) | drug sensitivity score (ZR-75-1 [11]; 4-OH-tamoxifen in medium 0 µM) | drug sensitivity score (ZR-75-1 [11]; 4-OH-tamoxifen in medium 1 µM) | relative IC50 (BT-474 Tam1 [12]) | relative IC50 (BT-474 Tam2 [13]) | relative IC50 (BT-474 [14]; 4-OH-tamoxifen in medium 0 µM) | relative IC50 (BT-474 [14]; 4-OH-tamoxifen in medium 1 µM) | relative IC50 (MCF-7 Tam1 [15]) | relative IC50 (MCF-7 [16]; 4-OH-tamoxifen in medium 0 µM) | relative IC50 (MCF-7 [16]; 4-OH-tamoxifen in medium 1 µM) | relative IC50 (T-47D Tam1 [17]) | relative IC50 (T-47D Tam2 [18]) | relative IC50 (T-47D [19]; 4-OH-tamoxifen in medium 0 µM) | relative IC50 (ZR-75-1 Tam1 [20]) | relative IC50 (ZR-75-1 Tam2 [21]) | relative IC50 (ZR-75-1 [22]; 4-OH-tamoxifen in medium 0 µM) | relative IC50 (ZR-75-1 [22]; 4-OH-tamoxifen in medium 1 µM) | relative IC50 (T-47D [19]; 4-OH-tamoxifen in medium 1 µM)
CC[C@@]1(O)C(=O)OCc2c1cc1n(c2=O)Cc2cc3ccccc3nc2-1 [Camptothecin] | 0 | 0 | 0 | 0 | 3 | 23 | 8.74 | 15.6 | 4.93 | 15.6 | 3.21 | 12.4 | 13.3 | 13.9 | 7.82 | > 5 µM | > 5 µM | > 5 µM | > 5 µM | 1.35 µM | 0.0326 µM | 0.649 µM | 0.0326 µM | 0.302 µM | 0.0442 µM | 0.0497 µM | 0.0598 µM | 0.0384 µM | 0.0956 µM | –
CC(C)C[C@H](NC(=O)[C@H](CCc1ccccc1)NC(=O)CN1CCOCC1)C(=O)N[C@@H](Cc1ccccc1)C(=O)N[C@@H](CC(C)C)C(=O)[C@@]1(C)CO1 [Carfilzomib] | 27.9 | 20.8 | 14.6 | 28.9 | 12.4 | 17.9 | 21 | 22.7 | 17.1 | 23.1 | 25.8 | 12.8 | 11.8 | 14 | 16.4 | 0.00459 µM | 0.0153 µM | 0.0256 µM | 0.00367 µM | 0.0746 µM | 0.0197 µM | 0.0158 µM | 0.0114 µM | 0.0334 µM | 0.00882 µM | 0.0471 µM | 0.0519 µM | 0.0317 µM | 0.0247 µM | 0.00282 µM
COc1cc2c(N3CCN(C(=O)Nc4ccc(OC(C)C)cc4)CC3)ncnc2cc1OCCCN1CCCCC1 [Tandutinib] | 0 | 0 | 0 | 0 | 0 | 0 | 0 | 0 | 0 | 0 | 0 | 0 | 0 | 0 | 0 | > 1 µM | > 1 µM | > 1 µM | > 1 µM | > 1 µM | > 1 µM | > 1 µM | > 1 µM | > 1 µM | > 1 µM | > 1 µM | > 1 µM | > 1 µM | > 1 µM | > 1 µM
C[C@@H](Oc1cc(-c2cnn(C3CCNCC3)c2)cnc1N)c1c(Cl)ccc(F)c1Cl [Crizotinib] | 0 | 0 | 0 | 0 | 0 | 0 | 0 | 0 | 0 | 0 | 0 | 0 | 0 | 0 | 0 | > 1 µM | > 1 µM | > 1 µM | > 1 µM | > 1 µM | > 1 µM | > 1 µM | > 1 µM | > 1 µM | > 1 µM | > 1 µM | > 1 µM | > 1 µM | > 1 µM | > 1 µM
O=P(O)(O)C(O)(Cn1ccnc1)P(=O)(O)O [Zoledronic acid] | 0 | 0 | 0 | 0 | 0 | 0 | 0 | 0 | 0 | 0 | 0 | 0 | 0 | 0 | 0 | > 10 µM | > 10 µM | > 10 µM | > 10 µM | > 10 µM | > 10 µM | > 10 µM | > 10 µM | > 10 µM | > 10 µM | > 10 µM | > 10 µM | > 10 µM | > 10 µM | > 10 µM
O=C(O)C(=O)O.[NH-][C@@H]1CCCC[C@H]1[NH-].[Pt+2] [Oxaliplatin] | 0 | 0 | 0 | 0 | 0 | 0 | 0 | 0 | 0 | 0 | 0 | 0 | 0 | 0 | 0 | > 10 µM | > 10 µM | > 10 µM | > 10 µM | > 10 µM | > 10 µM | > 10 µM | > 10 µM | > 10 µM | > 10 µM | > 10 µM | > 10 µM | > 10 µM | > 10 µM | > 10 µM
CCOc1cc2ncc(C#N)c(Nc3ccc(OCc4ccccn4)c(Cl)c3)c2cc1NC(=O)/C=C/CN(C)C [Neratinib] | 28.3 | 28.7 | 20.8 | 25.6 | 0 | 0 | 2.07 | 3.53 | 2.11 | 0.25 | 0 | 0 | 0 | 0 | 0 | 0.00418 µM | 0.00376 µM | 0.00918 µM | 0.00618 µM | > 1 µM | > 1 µM | – | 0.0976 µM | 0.218 µM | – | > 1 µM | > 1 µM | > 1 µM | > 1 µM | > 1 µM
CC1=C2C[C@H]3[C@@H](CC=C4C[C@@H](O)CC[C@@]43C)[C@@H]2CC[C@]12O[C@@H]1C[C@H](C)CN[C@H]1[C@H]2C [Cyclopamine] | 0 | 0 | 0 | 0 | 0 | 0 | 0 | 0 | 0 | 0 | 0 | 0 | 0 | 0 | 0 | > 10 µM | > 10 µM | > 10 µM | > 10 µM | > 10 µM | > 10 µM | > 10 µM | > 10 µM | > 10 µM | > 10 µM | > 10 µM | > 10 µM | > 10 µM | > 10 µM | > 10 µM
C[C@]1(c2nc3c(C(N)=O)cccc3[nH]2)CCCN1 [Veliparib  (ABT-888)] | 0 | 0 | 0 | 0 | 0 | 0 | 0 | 0 | 0 | 0 | 0 | 0 | 0 | 0 | 0 | > 10 µM | > 10 µM | > 10 µM | > 10 µM | > 10 µM | > 10 µM | > 10 µM | > 10 µM | > 10 µM | > 10 µM | > 10 µM | > 10 µM | > 10 µM | > 10 µM | > 10 µM
C=CCNC1=C2C[C@@H](C)C[C@H](OC)[C@H](O)[C@@H](C)/C=C(\C)[C@H](OC(N)=O)[C@@H](OC)/C=C\C=C(/C)C(=O)NC(=CC1=O)C2=O [Tanespimycin  (17-AAG)] | 24 | 23.1 | 17.1 | 24 | 4.15 | 19.2 | 13.9 | 3.79 | 3.1 | 5.17 | 5.11 | 7.79 | 11.6 | 8.45 | 9.57 | 0.0274 µM | 0.0386 µM | 0.0422 µM | 0.0424 µM | 0.444 µM | 0.0615 µM | 0.0656 µM | 1.64 µM | 2.18 µM | 1.55 µM | 0.284 µM | 0.118 µM | 0.0745 µM | 0.141 µM | 0.939 µM
C#Cc1cccc(Nc2ncnc3cc(OC)c(OCCCCCCC(=O)NO)cc23)c1 [CUDC-101] | 12.6 | 10.2 | 9.66 | 21.9 | 2.26 | 7.91 | 8.89 | 11.7 | 8.37 | 10.3 | 12.3 | 4.08 | 4.71 | 3.69 | 4.14 | 0.68 µM | 1.13 µM | 1.19 µM | 0.137 µM | 3.52 µM | 1.72 µM | 1.54 µM | 0.656 µM | 1.18 µM | 1.19 µM | 1.15 µM | 1.74 µM | 1.6 µM | 1.92 µM | 0.803 µM
COc1ncc(-c2ccc3nccc(-c4ccnnc4)c3c2)cc1NS(=O)(=O)c1ccc(F)cc1F | 31 | 25 | 18.5 | 25.9 | 13.1 | 18.1 | 19.8 | 22.4 | 15.7 | 19.3 | 15.6 | 18.6 | 19.4 | 19.3 | 16.3 | 0.00207 µM | 0.00703 µM | 0.0151 µM | 0.00569 µM | 0.00912 µM | 0.00597 µM | 0.00841 µM | 0.00399 µM | 0.0153 µM | 0.00587 µM | 0.0104 µM | 0.0107 µM | 0.00756 µM | 0.0107 µM | 0.0197 µM
NCC(=O)CCC(=O)O [Aminolevulinic acid] | 0 | 0 | 0 | 0 | 0 | 0 | 0.809 | 0 | 0 | 0 | 0 | 0 | 0 | 0 | 0 | > 10 µM | > 10 µM | > 10 µM | > 10 µM | > 10 µM | > 10 µM | – | > 10 µM | > 10 µM | > 10 µM | > 10 µM | > 10 µM | > 10 µM | > 10 µM | > 10 µM
CS(=O)(=O)OCCCCOS(C)(=O)=O [Busulfan] | 0 | 0 | 0 | 0 | 0 | 0 | 0.0038 | 0 | 0 | 0 | 0 | 0 | 0 | 0 | 0 | > 100 µM | > 100 µM | > 100 µM | – | > 100 µM | > 100 µM | – | > 100 µM | > 100 µM | > 100 µM | > 100 µM | > 100 µM | > 100 µM | > 100 µM | > 100 µM
